{"source": "paper PMC8468663", "about": "“Co-Spray Dried Nafamostat Mesylate with Lecithin and Mannitol as Respirable Microparticles for Targeted Pulmonary Delivery: Pharmacokinetics and Lung Distribution in Rats” (Pharmaceutics, 2021)", "key": {"[1]": {"conditions": "cited from earlier work"}, "[2]": {"experiment": "in vivo", "parameters": "species or system Sprague–Dawley rats", "conditions": "rat, 10 mg/kg; for half-life: T½", "method": "The Chungbuk National University Institutional Animal Care and Use Committee approved the experimental protocols and animal care methods used in this study. The first in vivo experiment was a pharmacokinetic study to determine the efficacy of NFM based on the route of administration and to determine the effect of lecithin as a stabilizer. After preparing a 0.5% mannitol solution (w/v), NFM was added at a concentration of 25 mg mL^−1 to prepare solution A. In addition, Tween 80 was added to solution A at 1% (w/v), plus lecithin, which was added at a concentration of 25 mg mL^−1, and stirred to evenly disperse it to produce solution B. Each experiment was carried out using a male SD rat (8 weeks old, 230–250 g) in three groups of 16 animals each. The SD rats were fed a commercial pellet diet and fresh water and housed at room temperature (23 ± 1 °C) with a relative humidity of 50 ± 10%, and a 12 h light and dark cycle. First, the intravenous (IV) group was administered a 100 μL dose of solution A (10 mg·kg^−^1) intravenously through the lateral tail vein. Second, a 100 μL dose of solution A (10 mg kg^−^1) was administered by intratracheal instillation (ITI) to the intratracheal instillation-1 (ITI-1) group. Finally, the ITI-2 group was administered a 100 μL dose of solution B (10 mg·kg^−^1). For the analysis of plasma concentration, blood was collected via the orbital vein 1, 5, 10, 30, and 60 min after administration to each group (n = 4). Blood was collected in a heparin tube and gently shaken. Plasma was immediately separated from the blood samples by centrifugation at 3000 rpm for 2 min. After administration to each group (n = 12), 4 rats were sacrificed at 10, 30, and 60 min. BALF samples were obtained by injecting and extracting 5 mL DW into the lungs of the rats. Lung tissues were placed in 10 mL DW and homogenized at 18,000 rpm for 3 min using a homogenizer. Acetonitrile (ACN) was added to plasma, BALF, and lung tissue samples in a ratio of 1:1 (v/v) to precipitate the proteins, and the sample solutions were centrifuged at 18,000 rpm for 5 min to obtain a supernatant. The supernatant was quantified by HPLC analysis. A second in vivo experiment was performed to determine the efficacy of NFM microparticles in a DPI formulation, focusing on the lung lumen and tissue. First, the solution group was administered a solution at a dose of 0.25 mg NFM per rat by ITI (1 mg·kg^−^1). Second, the SD-NM group was treated using a dry powder insufflator for the intratracheal administration of the SD-NM in the form of DPI at a dose of 0.25 mg of NFM per rat (1 mg·kg^−^1). Finally, the SD-NLM group was administered an SD-NLM at a dose of 0.25 mg of NFM per rat (1 mg kg^−^1) using a dry powder insufflator. BALF and lung tissue samples were prepared using the same procedure as that used for the in vivo study described above. The samples were quantified by HPLC analysis."}, "[3]": {"system": "SARS-CoV-2 entry into host cells", "parameters": "method as in PMID 32312781", "conditions": "cited from earlier work"}, "[4]": {"conditions": "male, Sprague-Dawley, Amount of NFM in BALF"}, "[5]": {"conditions": "male, Sprague-Dawley, inhaled or intranasal"}}, "note": "Counter-ions that a name gives are not always drawn."}
{"smiles": "N=C(N)c1ccc2cc(OC(=O)c3ccc(N=C(N)N)cc3)ccc2c1", "note": "[NFM, Nafamostat mesylate]", "values": [{"measurement": "Half-life in human blood", "setting": "[1]", "value": "approximately 3 min"}, {"measurement": "Amount of NFM in BALF", "setting": "[2]; male, Sprague-Dawley, 10 min", "value": 4.48, "unit": "µg/mL"}, {"measurement": "Amount of NFM in BALF", "setting": "[2]; male, Sprague-Dawley, 30 min", "value": 1.69, "unit": "µg/mL"}, {"measurement": "concentration at 10 min", "setting": "[2]; [4]", "value": 2900, "unit": "ng/mL"}, {"measurement": "concentration at 30 min", "setting": "[2]; [4]", "value": 1690, "unit": "ng/mL"}, {"measurement": "Tmax", "setting": "[2]; male, Sprague-Dawley, Tmax", "value": 5, "unit": "min"}, {"measurement": "Cmax", "setting": "[2]; [5]", "value": "22900 ± 4640", "unit": "ng/mL"}, {"measurement": "Tmax", "setting": "[2]; [5]", "value": "4.0 ± 1.00", "unit": "min"}, {"measurement": "T½", "setting": "[2]; [5]", "value": "28.6 ± 3.51", "unit": "min"}, {"measurement": "AUC(0-inf)", "setting": "[2]; [5]", "value": 11200, "unit": "ng·h/mL"}, {"measurement": "Cmax", "setting": "[2]; male, Sprague-Dawley, inhaled or intranasal, Cmax", "value": "25900 ± 4230", "unit": "ng/mL"}, {"measurement": "half-life", "setting": "[2]; [5]", "value": "26.7 ± 2.6", "unit": "min"}, {"measurement": "AUC(inf)", "setting": "[2]; male, Sprague-Dawley, iv", "value": "436.1 ± 31.59", "unit": "µg·min/mL"}, {"measurement": "AUC(0-inf)", "setting": "[2]; male, Sprague-Dawley, iv", "value": 7270, "unit": "ng·h/mL"}, {"measurement": "concentration at 10 min", "setting": "[2]; male, Sprague-Dawley, iv, Amount of NFM in BALF", "value": 960, "unit": "ng/mL"}, {"measurement": "Cmax", "setting": "[2]; male, Sprague-Dawley, iv, Cmax", "value": "43700 ± 7980", "unit": "ng/mL"}, {"measurement": "half-life", "setting": "[2]; male, Sprague-Dawley, iv", "value": "13.2 ± 0.52", "unit": "min"}, {"measurement": "Amount of NFM in BALF", "setting": "[2]", "value": "still had remaining NFM in the BALF"}, {"measurement": "Amount of NFM in lung tissue", "setting": "[2]", "value": "some residual drug"}, {"measurement": "Amount of NFM in BALF", "setting": "[2]; iv", "value": "There was no NFM in the BALF"}, {"measurement": "Half-life of ITI-1 and ITI-2 groups relative to IV group", "setting": "[2]; iv", "value": "approximately twice"}, {"measurement": "EC50, inhibition of SARS-CoV-2 entry into host cells", "setting": "[3]", "value": "low nanomolar range"}, {"measurement": "Efficiency of inhibition of SARS-CoV-2 entry relative to camostat mesylate", "setting": "[3]", "value": "approximately 15 fold"}]}
